Test results from patent US11241436B2, “Autophagy inducers for treatment of CNS conditions” (Northwestern University, priority 2017, dated 2022).

Columns and labels:
GFP-LC3 transgenic mice = assay: GFP-LC3 puncta in tissues of GFP-LC3 transgenic mice; assay type: in vivo, mouse; conditions: for numbers of GFP-LC3 puncta (autophagosomes): mouse brain; for number of GFP-LC3 puncta (autophagosomes): brain frontal cortex, heart, liver and muscle
Text: Results represent mean±s.d. Scale bar, 25 μm. N>100 cells or N2::4 mice.
Scale bar, 20 μm. Results represent mean±s.d. N≥4 mice.
Results represent mean±s.e.m. Statistics compare each value to the one with DMSO treatment. *, P<0.05; **, P<0.01; ***, P<0.001, t test. Scale bar: 20 μm.
To test this hypothesis, it was confirmed that Rg2 induces autophagy in vivo, by injecting Rg2 intraperitoneally (i.p.) into transgenic mice globally expressing GFP-LC3. […] Furthermore, in vivo autophagy induction by Rg2 via GFP-LC3 puncta assays in both muscle and brain was examined. […] Thus, the majority of Rg2 is not bound by plasma proteins and is freely available. Taken together, Rg2 was identified as a new in vivo autophagy inducer in vivo.
Autophagy analyses. For assessment of autophagy in vivo, 8-week old male WT and Becn 1FA/FA mice crossed to GFP-LC3 mice were exercised for 90 minutes, or starved for 48 h, and then anaesthetized by isoflurane and perfused with 4% PFA Brain and muscle samples were fixed in 4% PFA overnight, 15% sucrose for 4 h and 30% sucrose overnight before frozen sections were prepared. The number of GFP-LC3 puncta per unit area of tissue was quantified by fluorescence microscopy. Autophagy in vivo was also analyzed by western blot analysis of brain tissue extracts with antibodies against LC3 and p62/SQSTM1 (see below for details).

Aβ42 = assay: Dot blot assay of Aβ42 in brain of 5XFAD mice; assay type: in vivo, mouse
Method: Total protein loading was labeled by Ponceau S. N=5. **, P<0.01, t test.
Total protein loading was labeled by Ponceau S. Triplicate experiments from 4-5 mice in each group were shown. Results represent mean±s.e.m. NS, not significant; *, P<0.05; **, P<0.01; ***, P<0.001, t test.
Total protein loading was labeled by Ponceau S. Triplicate experiments from 4 mice in each group were shown.
Dot blot assay. Snap frozen hemi-brain were homogenized in 800 μl phosphate-buffered saline (PBS; Sigma-Aldrich, D8537) with 1% Triton X-100 supplemented with halt proteinase inhibitor cocktail (ThermoFisher Scientific), and halt phosphatase inhibitor cocktail (ThermoFisher Scientific). Protein concentration was quantified using BCA Assay (Pierce). For Af342 dot blots, 10 mg/ml brain homogenates were extracted in guanidine buffer (5 M guanidine-HCl [GuHCl], 50 mM Tris HCl pH 8.0) overnight at room temperature. One μl of sample was spotted in triplicate on 0.2 μm nitrocellulose membrane, and dried for 1 h at 37° C. The membrane was stained with Ponceau S, and the dot blot signal on the membrane was detected by immunostaining with Aβ42 antibody (Invitrogen, 700254, 1:1000) and HRP-conjugated secondary antibody (Santa Cruz Biotechnology, sc2004, 1:2000). Aβ42 signals were normalized to the Ponceau S staining. To separate soluble and insoluble Aβ fractions, 10 mg/ml of the total homogenated brains were centrifuged at 14000 rpm, 4° C. for 30 min. The supernatant (soluble fraction) was used directly for dot blot assays. The pellet (insoluble fraction) was extracted in guanidine buffer overnight at room temperature, and used in dot blot analyses. […] One μl of each sample was spotted on nitrocellulose membrane for dot blot analysis.

[1] = tested on: HTT65Q and HTT103Q aggregates; assay: Filter trap assay of polyQ HTT aggregates in HeLa cells; assay type: cell-based
Method: Cells were transfected with nontargeting control (NC) or ATG7 siRNA 24 h prior to Rg2 treatment for another 24 h. HTT aggregates were analyzed by lysate filtration through 0.2 μm nitrocellulose membrane. Cells treated with tetracycline served as negative control.
ML246 promotes the removal of intracellular aggregates formed by polyglutamine (polyQ)-expansion proteins. HeLa cell lines stably expressing tetracycline-repressible expanded polyQ-repeat protein HTT (huntingtin) was used as a model, HTT65Q and HTT103Q. In contrast to the HTT protein with the normal number of glutamine repeats (HTT25Q), HTT65Q and HTT103Q formed insoluble polyQ aggregates larger than 0.2-μm diameter, which can be detected by filter trap assay. […] Fluorescence imaging further confirmed that ML246 administration decreased the number of cells positive for HTT aggregates, which is also in an ATG7-dependent manner (FIG. S6B).
Accordingly, whether Rg2 affects the clearance of proteinaceous inclusions in vitro was next determined, using HeLa cell lines expressing tetracycline-repressible expanded polyglutamine (polyQ)-repeat protein HTT (huntingtin), HTT65Q and HTT103Q. Unlike the HTT protein with the normal number of glutamine repeats (HTT25Q), HTT65Q and HTT103Q formed insoluble polyQ aggregates larger than 0.2-μm diameter, which were detected by filter trap assays (FIG. 5A).
Filter trap assay. HeLa cells stably expressing CFP-HTT25Q, CFP-HTT65Q and CFP-HTT103Q were treated with 100 ng/ml tetracycline (IBI Scientific, IB02200) for 48 h, or 0.5 μM ML246 for 24 h with control or ATG7 siRNA (GE Dharmacon ON-TARGETplus control or ATG7 SMARTpool siRNA) for 48 h. Cells were then collected and lysed in lysis buffer containing 0.5% NP-40 for 30 min at 4° C. After centrifugation, the pellet was digested with 0.5 mg/ml DNasel (in 20 mM Tris-Cl, pH 8.0) for 1 h at 37° C., and dissolved into lysates containing insoluble aggregates by 2% SDS, 50 mM DTT and 20 mM EDTA. The lysates were then added onto 0.2 μm nitrocellulose membrane that was pre-equilibrated with 2% SDS/TBS for 30 min, and were filtered through the membrane by gentle vacuum using the Bio-Dot SF microfiltration apparatus (Bio-Rad). The signal was detected by immunostaining with the HRP-conjugated GFP antibody (Santa Cruz Biotechnology, sc9996, 1:1000).

CB1R = assay: Brain CB1R (CNR1) level by Western blot after chronic WIN; assay type: in vivo, mouse; conditions: mice concurrently treated with daily WIN for 14 d
Method: To investigate whether restoration of CB1R signaling underlies the behavioral regulation by autophagy activation, the level and functionality of CB1R in mouse brain after co-administration of chronic cannabinoids and autophagy inducers were analyzed. […] To determine whether the increased level of CB1R represents CB1R re-sensitization in the brain, the agonist-induced phosphorylation of signaling kinases downstream of CB1R after chronic WIN exposure were analyzed.

WT mice = assay: Analgesic tolerance test during chronic WIN treatment; assay type: in vivo, mouse; conditions: WT mice, co-treatment with daily WIN for 14 d, compared with vehicle
Method: Briefly, mice were injected with WIN for 14 d, and analgesic tolerance was measured without WIN treatment on day 0, and after 1-h WIN treatment on day 1 and day 14.
There were no genotype differences either in basal pain sensitivity to infrared heat-generated pain (agonist-free, day 0) (FIG. 2C), or in analgesic effects of acute WIN treatment prior to chronic WIN administration (day 1) (FIG. 2D).

[2] = 6-month old 5XFAD mice, ML246 5 mg/kg i.p. for 5 weeks

| Compound | numbers of GFP-LC3 puncta (autophagosomes) (GFP-LC3 transgenic mice) | insoluble Aβ42 in brain (Aβ42; [2]) | soluble Aβ42 in brain (Aβ42; [2]) | effect on brain Aβ42 (Aβ42; autophagy-deficient 5XFAD Becn1+/− KO mice, ML246 5 weeks) | accumulation of HTT65Q and HTT103Q aggregates ([1]; 0.5 μM ML246, 24 h) | reduction of HTT65Q and HTT103Q aggregates ([1]; ML246 with knockdown of ATG7) | levels of CB1R (CNR1) in the brain (CB1R) | pain-relieving effect of WIN on day 14 (WT mice) | number of GFP-LC3 puncta (autophagosomes) (GFP-LC3 transgenic mice; 10 mg/kg i.p.) | number of GFP-LC3 puncta (autophagosomes) (GFP-LC3 transgenic mice; 20 mg/kg i.p.) | duration of autophagy activity (GFP-LC3 transgenic mice; brain) | time of peak of autophagy activity (GFP-LC3 transgenic mice; brain) | time of decline of autophagy to the basal level (GFP-LC3 transgenic mice; muscle) | time of peak of induced autophagy (GFP-LC3 transgenic mice; muscle) | level of brain Aβ42 (Aβ42; Rg2 injection for 16 weeks in 2 month-old male 5XFAD mice vs vehicle (DMSO)) | accumulation of HTT65Q and HTT103Q aggregates ([1]; Rg2, 24 h) | effect on HTT aggregates ([1]; Rg2 with knockdown of ATG7) |
| --- | --- | --- | --- | --- | --- | --- | --- | --- | --- | --- | --- | --- | --- | --- | --- | --- | --- |
| N=c1c2c(-c3ccccc3)c(-c3ccccc3)n(Cc3ccccc3)c2ncn1[C@H]1CC[C@H](O)CC1 [ML246] | markedly increased | decreased levels | decreased levels | abolished | decreased | prevents this reduction | higher levels | potently rescued | – | – | – | – | – | – | – | – | – |
| CC(C)=CCC[C@](C)(O)[C@H]1CC[C@]2(C)[C@@H]1[C@H](O)C[C@@H]1[C@@]3(C)CC[C@H](O)C(C)(C)[C@@H]3[C@@H](O[C@@H]3O[C@H](CO)[C@@H](O)[C@H](O)[C@H]3O[C@@H]3O[C@@H](C)[C@H](O)[C@@H](O)[C@H]3O)C[C@]12C [Rg2, ginsenoside Rg2] | markedly increased | – | – | – | – | – | higher levels | potently rescued | significantly increases | significantly increases | at least 24 h | 4 h | 8 to 16 h | 4 h | effectively decreased | decreased accumulation | abolished |
